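Values below derive from 48-hour exposures of cells grown in 96-well plates, with endpoints linearly interpolated between the two concentrations bracketing the appropriate inhibition level. GI50 = concentration required for 50% inhibition of growth.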 Active and inactive are the calls of the source. Cut-off read from the data, not from the text of the source: active = GI50 up to about 1.1 µM and inactive = higher.
Tests used:
Test in all cases: NCI anticancer screen, dose series, 48 h
MDA-MB-231 = system: MDA-MB-231
ACHN = system: ACHN
SK-MEL-2 = system: SK-MEL-2
HCT-116 = system: HCT-116
U-251 = system: U-251
Hs-578T = system: Hs-578T
SNB-75 = system: SNB-75
SK-OV-3 = system: SK-OV-3
SN12C = system: SN12C
OVCAR-3 = system: OVCAR-3
T47D = system: T47D
A498 = system: A498
LOX IMVI = system: LOX IMVI
NCI-H522 = system: NCI-H522
RXF 393 = system: RXF 393
SF-295 = system: SF-295
UO-31 = system: UO-31
CAKI-1 = system: CAKI-1
SK-MEL-5 = system: SK-MEL-5
MDA-N = system: MDA-N
COLO 205 = system: COLO 205
NCI-H460 = system: NCI-H460
A549 = system: A549
NCI-H226 = system: NCI-H226
HCT-15 = system: HCT-15
NCI/ADR-RES = system: NCI/ADR-RES
UACC-257 = system: UACC-257
786-0 = system: 786-0
SF-268 = system: SF-268
SK-MEL-28 = system: SK-MEL-28
HT-29 = system: HT-29
OVCAR-5 = system: OVCAR-5
HOP-92 = system: HOP-92
OVCAR-8 = system: OVCAR-8
MDA-MB-435 = system: MDA-MB-435
TK-10 = system: TK-10
HCC 2998 = system: HCC 2998
BT-549 = system: BT-549
SW-620 = system: SW-620
HOP-62 = system: HOP-62
UACC-62 = system: UACC-62
DU-145 = system: DU-145
K562 = system: K562
Malme-3M = system: Malme-3M
IGROV-1 = system: IGROV-1
M14 = system: M14
KM12 = system: KM12
NCI-H23 = system: NCI-H23
PC-3 = system: PC-3
OVCAR-4 = system: OVCAR-4
SNB-19 = system: SNB-19
RPMI-8226 = system: RPMI-8226
MOLT-4 = system: MOLT-4
MCF7 = system: MCF7
EKVX = system: EKVX
SR = system: SR

Measured: GI50

O=C(Cn1c2ccc(Br)cc2c2nc3ccccc3nc21)NC1CCCCC1
> 100 µM: HCT-15
inactive: MDA-MB-231 > 100 µM | ACHN > 100 µM | SK-MEL-2 > 100 µM | HCT-116 > 100 µM | U-251 > 100 µM | Hs-578T 43.3 µM | SNB-75 36.1 µM | SK-OV-3 > 100 µM | SN12C > 100 µM | OVCAR-3 > 100 µM | T47D 60.4 µM | A498 > 100 µM | LOX IMVI > 100 µM | NCI-H522 > 100 µM | RXF 393 > 100 µM | SF-295 > 100 µM | UO-31 > 100 µM | CAKI-1 > 100 µM | SK-MEL-5 > 100 µM | MDA-N > 100 µM | COLO 205 > 100 µM | NCI-H460 > 100 µM | A549 > 100 µM | NCI-H226 > 100 µM | NCI/ADR-RES > 100 µM | UACC-257 > 100 µM | 786-0 > 100 µM | SF-268 > 100 µM | SK-MEL-28 81.1 µM | HT-29 > 100 µM | OVCAR-5 > 100 µM | HOP-92 51.1 µM | OVCAR-8 > 100 µM | MDA-MB-435 > 100 µM | TK-10 > 100 µM | HCC 2998 > 100 µM | BT-549 > 100 µM | SW-620 > 100 µM | HOP-62 > 100 µM | UACC-62 > 100 µM | DU-145 > 100 µM | K562 > 100 µM | Malme-3M > 100 µM | IGROV-1 > 100 µM | M14 > 100 µM | KM12 > 100 µM | NCI-H23 > 100 µM | PC-3 > 100 µM | OVCAR-4 > 100 µM | SNB-19 > 100 µM | RPMI-8226 > 100 µM | MOLT-4 > 100 µM

NS(=O)(=O)c1nnc(NS(=O)(=O)c2ccccc2C(=O)O)s1
inactive: MDA-MB-231 > 100 µM | ACHN > 100 µM | SK-MEL-2 > 100 µM | HCT-116 > 100 µM | U-251 > 100 µM | Hs-578T > 100 µM | SK-OV-3 > 100 µM | SN12C > 100 µM | OVCAR-3 > 100 µM | T47D > 100 µM | A498 > 100 µM | LOX IMVI > 100 µM | NCI-H522 > 100 µM | RXF 393 > 100 µM | SF-295 > 100 µM | UO-31 > 100 µM | CAKI-1 > 100 µM | SK-MEL-5 > 100 µM | MDA-N > 100 µM | COLO 205 > 100 µM | NCI-H460 > 100 µM | A549 > 100 µM | NCI-H226 > 100 µM | NCI/ADR-RES > 100 µM | UACC-257 > 100 µM | 786-0 > 100 µM | SF-268 > 100 µM | SK-MEL-28 > 100 µM | HT-29 > 100 µM | OVCAR-5 > 100 µM | HOP-92 > 100 µM | OVCAR-8 > 100 µM | MDA-MB-435 > 100 µM | TK-10 > 100 µM | HCC 2998 > 100 µM | BT-549 > 100 µM | SW-620 > 100 µM | HOP-62 > 100 µM | UACC-62 > 100 µM | MCF7 > 100 µM | EKVX > 100 µM | DU-145 > 100 µM | K562 40.7 µM | Malme-3M > 100 µM | M14 > 100 µM | KM12 > 100 µM | NCI-H23 > 100 µM | OVCAR-4 > 100 µM | SNB-19 > 100 µM | SR > 100 µM | RPMI-8226 > 100 µM | MOLT-4 76.7 µM
> 100 µM: HCT-15
